# Data as given in patent US8367678B2, “Treatment for spinal muscular atrophy” (Kaohsiung Medical University, priority 2008, dated 2013).
# What was measured:
# Format in all cases: cell-based, Human
# [1] = test system: SMN2 exon 7 splicing in SMA lymphoid cell lines; assay: SMN2 exon 7-containing versus exon 7-lacking transcripts by RT-PCR and quantitative densitometry
# Description: Human SMA lymphoid cell lines were treated with several 5-(N-ethyl-N-isopropyl)-amiloride and then the relative levels of SMN2 exon 7-containing versus exon 7-lacking transcripts by RT-PCR and quantitative densitometry (Proc Natl Acad Sci USA 2001; 98:9808-9813) were measured. Human lymphoblast cell lines were established from SMA patients with homozygous SMN1 deletion in our laboratory by Epstein-Barr virus transformation as described in Proc Natl Acad Sci USA 2001; 98:9808-9813. The cells were grown in RPMI-1640 medium supplemented with 2 mM L-glutamine, 10% fetal bovine serum (FBS), 100 units/ml penicillin and 100 μg/ml streptomycin at 37° C. in a humidified atmosphere containing 5% CO2. The SMA lymphoid cell lines derived from 6 SMA patients included 2 type I, 2 type II and 2 type III. The cells were treated with various concentrations of EIPA for 24 hours to determine the dosage effect and exposed to 10 μM of EIPA and harvested at different time intervals (2-24 hours). […] Thus, EIPA promoted SMN2 exon 7 inclusion in a dose-dependent and time-related manner in SMA cells.
# [2] = test system: SMN protein in SMA lymphoid cell lines; assay: SMN protein level by Western blotting and quantitative densitometry; settings: 24 hours
# Description: SMA lymphoid cell lines were treated with various concentrations of EIPA for 24 hours and then the level of SMN protein by Western blotting and quantitative densitometry were measured. Protein extract preparation and western blot analysis were performed essentially as described previously (Proc Natl Acad Sci USA 2001; 98:9808-9813). Briefly, proteins were resolved by SDS-PAGE and transferred to a polyvinyl difluoride membrane (Millipore). The membrane was blocked with a 5% skim milk solution and then exposed to the appropriate concentrations of primary antibodies for 1 hour at room temperature. The following primary antibodies were used: mouse monoclonal anti-SMN (BD Biosciences, 1:5,000), mouse monoclonal anti-SR 16H3 (Zymed, 1:500), mouse monoclonal anti-SRp20 (Zymed, 1:500), mouse monoclonal anti-hnRNP A 1 (Acris, 1:1000), mouse monoclonal anti-hnRNP A2/B1 (Acris, 1:1000), mouse monoclonal anti-Sam68 (Santa Cruz, 1:500), mouse monoclonal anti-SF2/ASF (Zymed, 1:2000), mouse monoclonal anti-Akt (Cell Signaling, 1:1000), mouse monoclonal anti-phosphorylated Akt (Cell Signaling, 1:1000), mouse monoclonal anti-α-tubulin (Abeam, 1:5000), and mouse monoclonal anti-β-tubulin (Santa Cruz, 1:2000). After washing with TBST (0.05% Tween 20 in TBS), the membrane was incubated for 1 hour with a secondary antibody at a 1:2500 dilution and then detected by ECL chemiluminescence kit (Amersham). Intensity of the signals was measured using LabWorks software (UVP). Referring to FIG. 2, in the cytoplasm, the SMN protein level of EIPA-treated SMA cell was 1.8-, 1.4-, and 2.6-fold higher than untreated cell lines. In the nucleus, the SMN protein level at 2, 10 and 50 μM EIPA was 2.2-, 2.0-, and 3.3-fold higher than untreated cell lines.
# [3] = test system: SRp20 in SMA lymphoid cell lines; assay: Levels of SR and hnRNP proteins by Western blotting and quantitative densitometry; settings: 10 μM EIPA (FIG. 3)
# Description: SMA lymphoid cell lines were treated with various concentrations of EIPA for 24 hours and then the level of SMN protein by Western blotting and quantitative densitometry were measured. Protein extract preparation and western blot analysis were performed essentially as described previously (Proc Natl Acad Sci USA 2001; 98:9808-9813). Briefly, proteins were resolved by SDS-PAGE and transferred to a polyvinyl difluoride membrane (Millipore). The membrane was blocked with a 5% skim milk solution and then exposed to the appropriate concentrations of primary antibodies for 1 hour at room temperature. […] After washing with TBST (0.05% Tween 20 in TBS), the membrane was incubated for 1 hour with a secondary antibody at a 1:2500 dilution and then detected by ECL chemiluminescence kit (Amersham). Intensity of the signals was measured using LabWorks software (UVP). […]
# SMA lymphoid cell lines were treated with EIPA and then the change in the levels of several SR and hnRNP proteins by Western blotting and quantitative densitometry was examined. The protein levels in cytoplasmic and nuclear fractions were also measured separately in order to gain information about subcellular distribution. […]
# SMA lymphoid cells [4] = assay: Intracellular pH by cytofluorometric SNARF-1 measurement; settings: 4 hours, untreated control about 7.40
# Description: Thus, the intracellular pH lowering and cytotoxic effects of EIPA on SMA lymphoid cells were determined. The procedures of cytofluorometric measurement were modified from a published method (J Cell Physiol 1998; 177:109-122). Briefly, three million SMA lymphoid cells were treated with 0, 2, or 10 μM of EIPA in 3 ml of growth medium for 4 hours in a 37° C. CO2 incubator, washed in PBS and then incubated in PBS containing 5 μM of carboxy SNARF-1 AM, acetate (Molecular Probes) for 30 minutes at 37° C., also in the absence or presence of 2 or 10 μM EIPA. The SNARF-1 loaded cells collected by 200×g 10 minutes centrifugation were divided into 7 aliquots, 5 for the calibration standard curves and 2 for sample reading. […] The aliquots for sample reading were suspended in hepes-buffered pH 7.1 and pH 7.4 K^+-BSS, without or with EIPA addition, but in the absence of nigericin. After standing in the darkness at room temperature for 20 minutes, the SNARF-1 fluorescence measurement was performed in a cytofluorometer (FACSAria BD Biosciences) by excitation at 488 nm and fluorescent emissions at 580 (FL-2) and 640 nm (FL-3). The cytofluorometric data was analyzed by using FACSDiVa and CellQuest software to gate the major viable cell populations for producing a standard curve of the 640/580 nm fluorescence ratios (y-axis) versus the high-K BSS buffer pHs (x-axis) of nigericin-treated cells. […]
# SMA lymphoid cells [5] = assay: Cell viability by trypan blue dye exclusion; settings: 24 hours
# Description: (§1) 2.5×10^5 lymphoid cells/0.5-ml/well in a 12-well dish were exposed to 0, 2, 5, 10, 20 or 50 μM of EIPA. Viability was determined by trypan blue dye exclusion at 24 hours. To determine the cell growth effect of EIPA, 2.5×10^5 lymphoid cells/0.5-ml/well in a 12-well dish were exposed to 0, 2, 5, 10, 20 or 50 μM of EIPA. 0.5-ml of fresh medium (without or with the same EIPA addition) was added at 72 hours and cell counts made at 120 hours. Referring to FIG. 6A, the cell viability remained at above 90% after treatment of 20 μM (or lower) EIPA for 24 hours, but was down to 60% in 50 WA EIPA medium. Additionally, Referring to FIG. 6B, from a dose response curve of 120 hours in vitro cultures, it was estimated that 8 μM of EIPA cause 50% growth inhibition of SMA lymphoid cells.
# SMA lymphoid cells [6] = assay: Cell growth assay (cell counts at 120 hours); settings: 120 hours in vitro cultures, from dose response curve; read-out: concentration causing 50% growth inhibition of SMA lymphoid cells
# Description: as §1
smiles,measurement,setting,value
"CCN(c1nc(N)c(C(=O)N=C(N)N)nc1Cl)C(C)C [EIPA, 5-(N-ethyl-N-isopropyl)-amiloride]",ratio of SMN2 exon 7-containing to exon 7-lacking transcripts,"[1]; 2 μM EIPA, 24 hours, SMA lymphoid cell lines",increased significantly
same,ratio of SMN2 exon 7-containing to exon 7-lacking transcripts,"[1]; 10 μM EIPA, 24 hours, SMA lymphoid cell lines",increased significantly
same,ratio of SMN2 exon 7-containing to exon 7-lacking transcripts,"[1]; 10 μM EIPA, at 4 hours after the treatment",significantly increased
same,ratio of SMN2 exon 7-containing to exon 7-lacking transcripts,"[1]; 50 μM EIPA, 24 hours, SMA lymphoid cell lines",increased significantly
same,SMN protein level in the cytoplasm versus untreated cell lines,[2]; first listed concentration (2 μM EIPA),1.8 fold
same,SMN protein level in the cytoplasm versus untreated cell lines,[2]; second listed concentration (10 μM EIPA),1.4 fold
same,SMN protein level in the cytoplasm versus untreated cell lines,[2]; third listed concentration (50 μM EIPA),2.6 fold
same,SMN protein level in the nucleus versus untreated cell lines,[2]; 2 μM EIPA,2.2 fold
same,SMN protein level in the nucleus versus untreated cell lines,[2]; 10 μM EIPA,2.0 fold
same,SMN protein level in the nucleus versus untreated cell lines,[2]; 50 μM EIPA,3.3 fold
same,increase of the level of SRp20 in the nucleus,[3],approximately 4 fold
same,intracellular pH (pHi),SMA lymphoid cells [4]; 2 μM EIPA,7.15±0.10
same,intracellular pH (pHi),SMA lymphoid cells [4]; 10 μM EIPA,7.03±0.15
same,cell viability,SMA lymphoid cells [5]; 20 μM (or lower) EIPA,above 90%
same,cell viability,SMA lymphoid cells [5]; 50 μM EIPA medium,60%
same,IC50,SMA lymphoid cells [6],~8 µM
